pIC50: −log10 of the molar value.
Columns and labels:
Tyrosinase [1] = target: T1, Tyrosinase (Mus musculus, UniProt P11344)
T1 sequence (P11344 whole entry): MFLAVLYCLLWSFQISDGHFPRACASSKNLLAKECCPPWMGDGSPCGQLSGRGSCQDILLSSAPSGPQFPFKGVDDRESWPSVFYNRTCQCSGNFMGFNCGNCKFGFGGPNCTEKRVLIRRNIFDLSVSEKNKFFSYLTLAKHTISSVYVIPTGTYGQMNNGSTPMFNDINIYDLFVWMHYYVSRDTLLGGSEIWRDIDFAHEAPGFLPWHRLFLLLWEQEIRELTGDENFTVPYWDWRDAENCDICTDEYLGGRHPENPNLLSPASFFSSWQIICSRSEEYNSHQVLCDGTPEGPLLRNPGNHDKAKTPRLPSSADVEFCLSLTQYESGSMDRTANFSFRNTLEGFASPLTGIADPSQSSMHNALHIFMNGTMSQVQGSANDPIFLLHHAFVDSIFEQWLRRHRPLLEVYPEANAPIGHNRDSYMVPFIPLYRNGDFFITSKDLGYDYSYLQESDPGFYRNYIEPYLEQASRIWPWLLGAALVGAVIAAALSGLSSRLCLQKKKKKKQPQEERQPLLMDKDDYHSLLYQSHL
Description: Inhibition of tyrosinase in mouse B16 cells assessed as reduction in melanin synthesis after 1 hr

Tyrosinase [2] = target: T2, Tyrosinase (Homo sapiens, UniProt P14679)
T2 sequence (P14679 whole entry): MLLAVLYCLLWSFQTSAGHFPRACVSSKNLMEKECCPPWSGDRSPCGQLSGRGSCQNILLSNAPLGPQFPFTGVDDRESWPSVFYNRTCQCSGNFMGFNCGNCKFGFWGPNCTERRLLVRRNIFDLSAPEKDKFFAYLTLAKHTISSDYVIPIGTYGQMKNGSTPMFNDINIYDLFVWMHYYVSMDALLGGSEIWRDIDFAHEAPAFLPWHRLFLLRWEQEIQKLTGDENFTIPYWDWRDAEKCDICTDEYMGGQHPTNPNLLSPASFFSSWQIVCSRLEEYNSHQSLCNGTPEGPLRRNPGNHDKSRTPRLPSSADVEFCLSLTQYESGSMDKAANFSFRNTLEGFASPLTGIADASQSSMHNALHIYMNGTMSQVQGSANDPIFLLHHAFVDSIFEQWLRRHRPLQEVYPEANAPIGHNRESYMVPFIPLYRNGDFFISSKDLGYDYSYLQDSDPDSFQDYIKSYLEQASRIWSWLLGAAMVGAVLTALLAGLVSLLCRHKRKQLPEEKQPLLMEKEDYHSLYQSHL

Tyrosinase [3] = target: T2, Tyrosinase; assay: biochemical
Description: Inhibition of recombinant human tyrosinase expressed in baculovirus infected Sf9 cells using L-DOPA as substrate by spectrophotometric analysis

Tyrosinase [4] = target: T1, Tyrosinase; format: cell-based
Description: Inhibition of tyrosinase in mouse B16F10 cells assessed as reduction in melanin synthesis after 2 hrs by spectrophotometric analysis

[5] = Cytotoxicity against mouse B16 cells assessed as cell viability at 1000 uM after 48 hrs by MTT assay relative to control; format: cell-based; settings: read-out: Activity
Tyrosinase [6] = target: T3, Tyrosinase (Agaricus bisporus, UniProt O42713)
T3 sequence (O42713 whole entry): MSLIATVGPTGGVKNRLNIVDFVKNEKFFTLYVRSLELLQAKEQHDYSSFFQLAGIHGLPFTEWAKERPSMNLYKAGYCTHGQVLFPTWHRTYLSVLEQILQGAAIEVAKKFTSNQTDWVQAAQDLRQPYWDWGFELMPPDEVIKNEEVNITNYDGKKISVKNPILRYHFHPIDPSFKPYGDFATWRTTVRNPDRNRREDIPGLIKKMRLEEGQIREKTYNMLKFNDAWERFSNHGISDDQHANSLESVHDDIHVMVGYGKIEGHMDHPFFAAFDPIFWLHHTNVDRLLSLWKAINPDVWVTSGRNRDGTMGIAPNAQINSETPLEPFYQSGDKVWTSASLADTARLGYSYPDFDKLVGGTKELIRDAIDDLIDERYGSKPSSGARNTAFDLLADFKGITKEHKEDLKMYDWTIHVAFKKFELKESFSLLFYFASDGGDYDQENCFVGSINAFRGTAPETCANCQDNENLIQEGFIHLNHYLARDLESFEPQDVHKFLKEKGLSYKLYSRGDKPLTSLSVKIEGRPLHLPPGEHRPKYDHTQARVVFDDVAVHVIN
Description: Inhibition of mushroom tyrosinase

Tyrosinase [7] = target: T3, Tyrosinase; assay: Inhibition of Agaricus bisporus tyrosinase using L-tyrosine as substrate after 60 mins by spectrophotometric analysis
[8] = target: T4, Tyrosinase (Homo sapiens) (UniProt P14679); assay: Competitive inhibition of recombinant human tyrosinase expressed in baculovirus infected Sf9 cells using L-DOPA as substrate by double-reciprocal plot analysis
T4 sequence (whole entry): T2 sequence (P14679 whole entry)

Tyrosinase [9] = target: T2, Tyrosinase; remark: listed apart in the source
[10] = target: T4, Tyrosinase (Homo sapiens); assay: Potency index, ratio of kojic acid IC50 to compound IC50 for human tyrosinase
Tyrosinase [11] = target: T3, Tyrosinase; assay: Inhibition of Agaricus bisporus tyrosinase using L-tyrosine as substrate after 30 mins by spectrophotometric analysis
Tyrosinase [12] = target: T2, Tyrosinase; assay: Inhibition of tyrosinase (unknown origin) assessed as reduction in monophenolase activity
Tyrosinase [13] = target: T2, Tyrosinase; assay: Inhibition of tyrosinase (unknown origin) assessed as reduction in diphenolase activity
[14] = target: T5, Tyrosinase (Mus musculus) (UniProt P11344); assay: Inhibition of tyrosinase in mouse B16 cells assessed as reduction in alpha-MSH induced melanin synthesis at 30 uM relative to control; format: cell-based
T5 sequence (whole entry): T1 sequence (P11344 whole entry)

Tyrosinase [15] = target: T1, Tyrosinase; assay: Inhibition of tyrosinase in mouse B16 cells assessed as reduction in alpha-MSH induced melanin synthesis; format: cell-based
[16] = target: T4, Tyrosinase (Homo sapiens); assay: Inhibition of human tyrosinase at 1 uM using L-tyrosine as substrate after 30 mins by ELISA relative to control
Tyrosinase (Danio rerio) = target: T6, Tyrosinase (Danio rerio) (UniProt A0A8M1PAD4); assay: Inhibition of tyrosinase in zebrafish assessed as reduction in pigmentation level at 10 uM
T6 sequence (whole entry): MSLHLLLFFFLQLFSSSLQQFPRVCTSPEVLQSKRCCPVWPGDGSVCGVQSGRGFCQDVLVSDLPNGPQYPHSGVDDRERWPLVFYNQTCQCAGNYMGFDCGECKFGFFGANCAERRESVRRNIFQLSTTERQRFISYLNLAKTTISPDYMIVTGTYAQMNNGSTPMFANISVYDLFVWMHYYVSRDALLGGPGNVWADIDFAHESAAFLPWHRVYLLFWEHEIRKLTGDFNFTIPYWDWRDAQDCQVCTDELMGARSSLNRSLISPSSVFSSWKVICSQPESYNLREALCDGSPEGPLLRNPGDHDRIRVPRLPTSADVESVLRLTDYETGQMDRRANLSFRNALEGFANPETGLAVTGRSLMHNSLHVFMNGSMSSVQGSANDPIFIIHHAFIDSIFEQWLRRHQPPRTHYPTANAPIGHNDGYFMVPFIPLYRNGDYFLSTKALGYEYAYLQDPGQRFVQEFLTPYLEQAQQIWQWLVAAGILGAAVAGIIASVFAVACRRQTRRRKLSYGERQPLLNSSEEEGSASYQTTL

[17] = target: T4, Tyrosinase (Homo sapiens); assay: Inhibition of tyrosinase in human epidemal melanocytes assessed as reduction in melanin formation at 1 uM; format: cell-based
[18] = target: T7, Tyrosinase (Agaricus bisporus) (UniProt O42713); assay: Inhibition of Agaricus bisporus tyrosinase at 1000 uM relative to control
T7 sequence (whole entry): T3 sequence (O42713 whole entry)

Tyrosinase [19] = target: T1, Tyrosinase; assay: Inhibition of tyrosinase in mouse B16 cells; format: cell-based
Tyrosinase [20] = target: T2, Tyrosinase; assay: Inhibition of human tyrosinase after 120 mins

C/C(=C\Cc1c(O)ccc(C(=O)/C=C/c2ccc(O)cc2O)c1O)CO
pIC50 (Tyrosinase [1]): 5.40 | pIC50 (Tyrosinase [2]): 6.77

O=C1/C(=C/c2ccc(=O)n(O)c2)Oc2cc(O)cc(O)c21
pIC50 (Tyrosinase [3]): 4.52

C[S+]([O-])c1ccc(-c2nc(-c3ccncc3)c(-c3ccc(F)cc3)[nH]2)cc1 (stereo not given) [SB-203580]
pIC50 (Tyrosinase [4]): 7.47

CC(C)=CCC[C@](C)(O[C@@H]1O[C@H](CO[C@@H]2O[C@H](CO)[C@@H](O)[C@H](O)[C@H]2O)[C@@H](O)[C@H](O)[C@H]1O)[C@H]1CC[C@]2(C)[C@@H]1[C@H](O)C[C@@H]1[C@@]3(C)CC[C@H](O[C@@H]4O[C@H](CO)[C@@H](O)[C@H](O)[C@H]4O[C@@H]4O[C@H](CO)[C@@H](O)[C@H](O)[C@H]4O)C(C)(C)[C@@H]3CC[C@]12C [GINSENOSIDE RB1]
viability at 48 h, 1000 µM [5]: 4.67%

O=C1/C(=C/c2ccc(O)cc2)Oc2cc(O)cc(O)c21
pIC50 (Tyrosinase [6]): 4.41

COc1ccc(/C=N/c2ccccc2)cc1
pIC50 (Tyrosinase [7]): 3.67

O=C1/C(=C/c2ccc(=O)n(O)c2)Oc2cc(O)ccc21
Kic [8]: 0.35 µM | pIC50 (Tyrosinase [6]): 5.82

Oc1ccc(-c2nc(-c3ccncc3)c(-c3ccc(F)cc3)[nH]2)cc1 [SB-202190]
pIC50 (Tyrosinase [4]): 7.52

O=C(/C=C/c1ccc(O)cc1O)c1ccc(O)cc1O
pIC50 (Tyrosinase [1]): 5.30 | pIC50 (Tyrosinase [2]): 6.68 to 7.15

CCCCc1ccc(O)cc1O [RUCINOL]
pIC50 (Tyrosinase [9]): 4.68 | Ratio IC50 [10]: 20

Oc1ccccc1/C=N/c1ccccc1 [2-((PHENYLIMINO)METHYL)PHENOL]
pIC50 (Tyrosinase [7]): 3.60

CN(C)c1ccc(/C=C/C(=N\O)c2ccccc2O)cc1
pIC50 (Tyrosinase [2]): 5.10

Oc1ccc(O)cc1 [HYDROQUINONE]
pIC50 (Tyrosinase [9]): 2.36

Oc1ccc(/C=N/c2ccccc2)cc1
pIC50 (Tyrosinase [7]): 3.84

Oc1cc(O)cc(-c2cc3ccc(O)cc3o2)c1 [MORACIN M]
pIC50 (Tyrosinase [2]): 5.10

O=C1/C(=C/c2ccc(O)cc2)Oc2cc(O)ccc21
pIC50 (Tyrosinase [6]): 4.42

COc1cc([N+](=O)[O-])ccc1/C=C/C(=N\O)c1ccccc1O
pIC50 (Tyrosinase [2]): 5.32

Cc1ccc(S(=O)(=O)Oc2ccccc2/N=N/c2ccc(O)cc2)cc1
pIC50 (Tyrosinase [11]): 3.70

Oc1ccc(/N=N/c2ccccc2O)cc1
pIC50 (Tyrosinase [11]): 4.36

CCCCCCCCn1cc(O)c(=O)cc1COC(=O)[C@@H](N)Cc1ccccc1
pIC50 (Tyrosinase [12]): 4.90 | pIC50 (Tyrosinase [13]): 4.90

CC(C)=CCc1c(O)ccc(C(=O)/C=C/c2ccc(O)cc2O)c1O [MORACHALCONE A]
pIC50 (Tyrosinase [1]): 5.42 | pIC50 (Tyrosinase [2]): 6.09 to 7.10

COc1ccc(/N=C/c2ccc(O)c(O)c2)cc1
pIC50 (Tyrosinase [11]): 4.21

CC(C)=C/C=C1\O[C@@H]2CC(C)=CC(=O)[C@@H]2[C@]1(C)O [BISABOLANGELONE]
inhibition [14]: 99% | pIC50 (Tyrosinase [15]): 5.05

O=C1/C(=C/c2ccc(O)cc2)Oc2cccc(O)c21
pIC50 (Tyrosinase [6]): 4.50

Cc1ccc(S(=O)(=O)Oc2ccccc2/N=N/c2ccc(O)cc2O)cc1
pIC50 (Tyrosinase [11]): 4.75

Oc1ccc(/C=C/c2cc(O)cc(O)c2)cc1 [RESVERATROL]
pIC50 (Tyrosinase [2]): 3.60

O=C1C[C@@H](c2ccc(O)cc2O)Oc2cc(O)cc(O)c21
pIC50 (Tyrosinase [2]): 6.01

C=C1OC(=O)/C(=C\CCCCCCCCCCCCC)[C@H]1O
inhibition [16]: 50% | inhibition (Tyrosinase (Danio rerio)): 30% | inhibition [17]: 40%

COc1ccc(/N=C/c2ccc(O)cc2O)cc1
pIC50 (Tyrosinase [11]): 4.29

O=C(N[C@@H](Cc1ccccc1)C(=O)OCc1cc(=O)c(O)c[nH]1)OCc1ccccc1
pIC50 (Tyrosinase [12]): 5.71 | pIC50 (Tyrosinase [13]): 5.55

CC(C)=CCc1c(O)ccc(C[C@@H]2[C@H](c3c(O)ccc(C(=O)/C=C/c4ccc(O)cc4O)c3O)C=C(C)C[C@H]2c2ccc(O)cc2O)c1O
pIC50 (Tyrosinase [2]): 5.34

COc1ccc(NC(=O)/C=C/c2ccc(O)c(O)c2)cc1
inhibition [18]: 36.8%

CCCCCCCCCCCCC/C=C1\C(=O)O[C@@](C)(OC)[C@@H]1O
inhibition [16]: 50% | inhibition (Tyrosinase (Danio rerio)): 25% | inhibition [17]: 40%

Oc1ccc(/N=C/c2ccc(O)c(O)c2)cc1
pIC50 (Tyrosinase [11]): 4.76

Oc1cccc(/C=C/c2ccc(O)cc2O)c1
pIC50 (Tyrosinase [19]): 6.10

N[C@@H](Cc1ccccc1)C(=O)N[C@@H](Cc1ccccc1)C(=O)OCc1cc(=O)c(O)c[nH]1
pIC50 (Tyrosinase [12]): 5.05 | pIC50 (Tyrosinase [13]): 4.58

CCCCCCn1cc(O)c(=O)cc1COC(=O)[C@@H](N)Cc1ccccc1
pIC50 (Tyrosinase [12]): 4.72 | pIC50 (Tyrosinase [13]): 4.37

Oc1cc(O)cc(CCc2ccc(O)cc2O)c1
pIC50 (Tyrosinase [19]): 6.52

C=C(C)C(=O)Cc1c(-c2ccc(O)cc2O)oc2c3c(cc(O)c2c1=O)OC(C)(C)C=C3
pIC50 (Tyrosinase [2]): 3.54

O=C(O)/C=C/c1ccc(O)cc1 [COUMARIC ACID]
pIC50 (Tyrosinase [20]): 5.52

OC[C@H]1O[C@@H](Oc2cc(O)cc(/C=C/c3ccc(O[C@@H]4O[C@H](CO)[C@@H](O)[C@H](O)[C@H]4O)cc3O)c2)[C@H](O)[C@@H](O)[C@@H]1O [MULBERROSIDE A]
pIC50 (Tyrosinase [19]): < 4.00
